Laboratory results reported in patent publication US20110046385A1, “Polymorphs Of Prostaglandin Agonists And Methods For Making The Same” (priority 2007, published 2011).

Columns and labels:
tibia defect site = settings: beagles, 0.2 mg/kg injected into tibia defect site twice a day for 10 days; cited from earlier work
[1] = system: alveolar bone in the mandible; settings: dogs, local infusion for 3 weeks, 500 to 2000 μg per week; cited from earlier work
rib fracture site = settings: adult beagles, 0.2 mg injected into rib fracture sites twice a day for 10 days; cited from earlier work
[2] = system: Bone Morphogenetic Protein 7 (BMP-7) expression in wild type 293S cells; assay: Kidney regeneration assay: BMP-7 expression (Northern blot) in wild type 293S cells; assay type: cell-based, human; settings: parental 293S cell line, 10^-6M, RNA at 8, 16 and 24 hours
Method: (§1) Methods: 293S and EP2 293S cells are grown in Dulbecco's Modified Eagle medium (DMEM, Gibco, BRL; Gaithersburg, Md.). […] Cells are harvested and RNA is extracted at 8, 16 and 24 hours. Northern blot analysis of total RNA ([…]) is carried out by probing the blots with ^32P-labeled BMP-7 probe. The blots are normalized for RNA loading by hybridization with ^32P-labeled 18s ribosomal RNA probe. […] Given the known role of BMP-7 in kidney regeneration and the ability of an prostaglandin agonist to induce BMP-7 expression in 293S kidney cells in a time and receptor specific manner indicates a role for prostaglandin agonist in kidney regeneration.

[3] = system: trabecular bone in the tibial metaphysis; settings: daily intraosseous injections into left tibia metaphysis for 14 days; cited from earlier work
[4] = system: Bone Morphogenetic Protein 7 (BMP-7) expression in 293S cells transfected with EP2; assay: Kidney regeneration assay: BMP-7 expression (Northern blot) in EP2 293S cells; assay type: cell-based, human; settings: 10^-6M, RNA at 8, 16 and 24 hours
Method: as §1

SMILES | periosteal and cortical endosteal bone formation (tibia defect site) | alveolar bone formation [1] | bone matrix formation at fracture site (rib fracture site) | induction of BMP-7 expression [2] | trabecular bone in the metaphysis [3] | induction of BMP-7 expression [4]
CCCCC[C@H](O)/C=C/[C@H]1[C@H](O)CC(=O)[C@@H]1CCCCCCC(=O)O [PGE1, prostaglandin E1] | more periosteal and cortical endosteal bone formation, with an increased amount of osteoid present | dramatic, localized formation of alveolar bone | induced bone matrix formation on the periosteal envelope adjacent to the fracture site and its contralateral matching site | – | – | –
CCCCC[C@H](O)/C=C/[C@H]1[C@H](O)CC(=O)[C@@H]1C/C=C\CCCC(=O)O [PGE2, prostaglandin E2] | – | – | – | generally not observed | significant increase of trabecular bone in the metaphysis | induce the expression of BMP-7 in the EP2 293S cells in a time dependent manner
